Laboratory results reported in US9340577B2, “HLA binding motifs and peptides and their uses” (priority 1992, dated 2016).
pIC50: −log10 of the molar value. No end group written: not given here.

Experiments:
Experiment in all cases: biochemical
DR4w4 (DRB1*0401) = DR4w4 (DRB1*0401) (Homo sapiens, UniProt P01903+P01911, A100K/A169T/F76Y/I96L/K127E/L162R/M171V/N62H/P40V/Q125Y/R42H/S133A/S149N/S66Y/V115G/V209L/W38E); assay type: binding
DRB1*0301 = DRB1*0301 (Homo sapiens, UniProt P01903+P01911, A100K/A102G/A103R/A169T/F55Y/I96L/K41T/L162R/M171V/P40S/Q125H/Q178H/Q39Y/R42S/S66N/T106N/T262R/W38E/Y61H); assay type: binding
DRB1*0405 = DRB1*0405 (Homo sapiens, UniProt P01903+P01911, A100R/A169T/D86S/F76Y/I96L/K127E/L162R/M171V/N62H/P40V/Q125Y/R42H/S133A/S149N/S66Y/V115G/V209L/W38E); assay type: binding
DRB1*0802 = DRB1*0802 (Homo sapiens, UniProt P01903+P01911, A100R/A103L/A169T/F76Y/H45Y/I96F/K41T/L162R/M171V/P40S/Q125H/Q178H/Q39Y/Q99D/R218S/R42G/S66Y/V115G/W38E); assay type: binding
DRB1*0901 = DRB1*0901 (Homo sapiens, UniProt P01903+P01911, A100R/A103E/D57H/D86V/F55Y/F60I/F76Y/I96F/K127E/L162R/M171V/P40D/Q125H/Q99R/R33Q/R42F/S133A/S66N/T210M/V115G/W38K/Y107V/Y59G/Y89S); assay type: binding
DRB1*1201 = DRB1*1201 (Homo sapiens, UniProt P01903+P01911, A100R/A169T/D57E/D86V/F55L/H45Y/K41T/L162R/M171V/P40S/Q125H/Q178H/Q39Y/Q99D/R42G/S66L/T262R/V114A/V67L/W38E/Y59H/Y61H/Y89S); assay type: binding
DRB1*1302 = DRB1*1302 (Homo sapiens, UniProt P01903+P01911, A100E/A169T/K41T/L162R/M171V/P40S/Q125H/Q178H/Q39Y/Q99D/R42S/S66N/T262R/V115G/W38E/Y61H); assay type: binding
DRB4*0101 = DRB4*0101 (Homo sapiens, UniProt P01903+P13762, G164S); assay type: binding
DRB1*1101 = DRB1*1101 (Homo sapiens, UniProt P01903+P01911, A100R/A169T/A87E/I96F/K41T/L162R/M171V/P40S/Q125H/Q178H/Q39Y/Q99D/R42S/S66Y/T262R/V115G/W38E); conditions: Binding affinity DRB1 *1101
DRB5*0101 = DRB5*0101 (Homo sapiens, UniProt P01903+Q30154); conditions: Binding affinity DRB5 *0101
DR1 (DRB1*0101) = DR1 (DRB1*0101) (Homo sapiens, UniProt P01903+P01911, A100R/D57E/F55L/F60I/F76Y/I96L/L162R/M171V/P40L/Q125E/R42F/V115G/Y59C); assay type: binding
DRB1*1501 = DRB1*1501 (Homo sapiens, UniProt P01903+P01911); assay type: binding
DR7 (DRB1*0701) = DR7 (DRB1*0701) (Homo sapiens, UniProt P01903+P01911, A100R/A102G/A103Q/D57E/D86V/E43K/F76Y/K127E/L162R/M171V/P40G/Q125H/Q99D/R33Q/R42Y/R54Q/S133A/S66F/T210M/V115G/Y107V/Y59L/Y89S); assay type: binding

DRB1*0301, sequence (P01903 26-254 limits assumed, other chains not shown): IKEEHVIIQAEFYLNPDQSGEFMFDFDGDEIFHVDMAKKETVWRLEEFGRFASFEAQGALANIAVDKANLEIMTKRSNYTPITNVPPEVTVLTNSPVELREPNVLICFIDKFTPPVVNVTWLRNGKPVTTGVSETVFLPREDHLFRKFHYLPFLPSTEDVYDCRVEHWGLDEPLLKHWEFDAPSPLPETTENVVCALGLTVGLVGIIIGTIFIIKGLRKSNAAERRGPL
DRB1*1101, sequence (P01903 26-254 limits assumed, other chains not shown): as above
DRB1*1302, sequence (P01903 26-254 limits assumed, other chains not shown): as above

Compound	pIC50 (DR4w4 (DRB1*0401))	pIC50 (DRB1*0301)	pIC50 (DRB1*0405)	pIC50 (DRB1*0802)	pIC50 (DRB1*0901)	pIC50 (DRB1*1201)	pIC50 (DRB1*1302)	pIC50 (DRB4*0101)	pIC50 (DRB1*1101)	pIC50 (DRB5*0101)	pIC50 (DR1 (DRB1*0101))	pIC50 (DRB1*1501)	pIC50 (DR7 (DRB1*0701))
MLAVFKDTYGLSFTD [Peptide 90.0050]	6.08	7.35	< 4.70	5.10	5.80	5.13	5.90	< 4.70	5.64	4.74			
EDEIDTDLDGFIDDS [Peptide 90.0126]	< 4.70	6.89	5.99			6.86	7.17	6.08	< 4.70		6.49	6.57	
CC(C)C[C@H](NC(=O)[C@H](CCC(N)=O)NC(=O)[C@H](CCCCN)NC(=O)[C@@H](NC(=O)[C@H](CC(C)C)NC(=O)[C@H](CCC(N)=O)NC(=O)[C@@H](NC(=O)[C@H](C)NC(=O)[C@H](CO)NC(=O)[C@@H](NC(=O)[C@@H](NC(=O)[C@H](CC(=O)O)NC(=O)[C@@H](N)CC(=O)O)[C@@H](C)O)C(C)C)[C@@H](C)O)C(C)C)C(=O)N[C@@H](CCC(N)=O)C(=O)N[C@@H](Cc1c[nH]cn1)C(=O)O [Peptide 89.0162]	7.00	6.62	6.17		5.71	6.56	7.14	6.89	6.03	6.24		6.22	
YKTLFVDVTSTYHWT [Peptide 90.0241]	7.12	7.25	6.26	4.85	5.65	5.41	7.15	< 4.70	5.38	5.26	5.39		6.19
CC[C@H](C)[C@H](NC(=O)[C@H](Cc1c[nH]cn1)NC(=O)[C@H](C)NC(=O)[C@H](Cc1ccc(O)cc1)NC(=O)[C@H](CC(C)C)NC(=O)[C@@H](NC(=O)[C@H](C)NC(=O)[C@@H]1CCCN1C(=O)[C@H](CCCCN)NC(=O)[C@@H](NC(=O)[C@H](CC(C)C)NC(=O)[C@@H](NC(=O)[C@H](CCCCN)NC(=O)[C@@H](N)Cc1ccccc1)[C@@H](C)O)[C@@H](C)CC)[C@@H](C)O)C(=O)N[C@@H](CCC(N)=O)C(=O)O [Peptide 89.0082]	6.91	6.08	7.85		6.24	7.08	7.35	7.70	8.26	5.61	7.64		
WKLIRMECAIMYTAR [Peptide 90.0245]	6.48	6.69	6.11	5.04	5.31	6.71		7.57		5.91		5.68	5.34
EIYIIEEDTCTMVTG [Peptide 90.0203]	6.59	6.56	5.51	< 4.70	< 4.70	< 4.70	6.24	5.76		< 4.70	5.87	5.19	
FKYFKEDAAKYSKTQ [Peptide 90.0206]	7.72	6.35	5.16	6.08	5.77	6.40	5.77	< 4.70	6.52		7.20	6.06	
CC[C@H](C)[C@H](NC(=O)[C@H](Cc1c[nH]c2ccccc12)NC(=O)[C@H](CCC(=O)O)NC(=O)[C@@H]1CCCN1)C(=O)N[C@@H](CCC(=O)O)C(=O)N[C@@H](CCCNC(=N)N)C(=O)N[C@@H](CCC(N)=O)C(=O)N[C@H](C(=O)N[C@H](C(=O)N[C@@H](CC(C)C)C(=O)N[C@@H](CCC(N)=O)C(=O)N[C@@H](Cc1c[nH]cn1)C(=O)N[C@@H](CO)C(=O)N[C@@H](Cc1ccccc1)C(=O)N[C@@H](CC(N)=O)C(=O)O)C(C)C)[C@@H](C)O [Peptide 89.0049]	7.74	6.68	6.36	6.15	5.34	5.10	6.03	8.70	6.40	< 4.70	5.28		5.54
